How the values were obtained:
[1] = tested on: chloroquine-resistant (W2) strain of P. falciparum; experiment: In vitro anti-malarial activity assay (plasmodial LDH activity), W2 clone; type: cell-based; settings: Plasmodium falciparum, W2; 72 h incubation, LDH readout; read-out: P. falciparum (W2 Clone) IC50
Experimental: In vitro anti-malarial activity of the representative compounds was determined against chloroquine sensitive (D6) and chloroquine-resistant (W2) strains of P. falciparum.
The anti-malarial activity was determined by measuring plasmodial LDH activity as described earlier (Jain, M.; Khan, S. I.; Tekwani, B. L.; Jacob, M. R.; Singh, S.; Singh, P. P.; Jain, R. Synthesis, anti-malarial, antileishmanial, and antimicrobial activities of some 8-quinolinamine analogues. Bioorg. Med. Chem. 2005, 13, 4458-4466). A suspension of red blood cells infected with D6 or W2 strains of P. falciparum (200 with 2% parasitemia and 2% hematocrit in RPMI 1640 medium supplemented with 10% human serum and 60 µg/mL Amikacin) was added to the wells of a 96-well plate containing 10 μL of serially diluted test samples. The plate was flushed with a gas mixture of 90% N2, 5% O2, and 5% CO2 and incubated at 37° C. for 72 h in a modular incubation chamber (Billups-Rothenberg, Calif.). Parasitic LDH activity was determined by using Malstat™ reagent (Flow Inc., Portland, Oreg.) according to the procedure of Makler and Hinrichs (M. T. Makler and D. J. Hinrichs, Measurement of the lactate dehydrogenase activity of Plasmodium falciparum as an assessment of parasitemia. J. Am. J. Trop. Med. Hyg. 1993, 48(2):205-210). Briefly, 20 μl, of the incubation mixture was mixed with 100 μL of the Malstat™ reagent and incubated at room temperature for 30 min Twenty microliters of a 1:1 mixture of NBT/PES (Sigma, St. Louis, Mo.) was then added and the plate was further incubated in the dark for 1 h. The reaction was then stopped by the addition of 100 μL of a 5% acetic acid solution. The plate was read at 650 nm. Artemisinin and chloroquine were included in each assay as the drug controls. IC50 values were computed from the dose-response curves. To determine the selectivity index of anti-malarial activity of compounds, their cytotoxicity in vitro to mammalian cells was also determined. The assay was performed in 96-well tissue culture-treated plates as described earlier (J. Mustafa, S. I. Khan, G. Ma, L. A. Walker and I. A. Khan, Synthesis and Anticancer Activities of Fatty Acid Analogs of Podophyllotoxin. Lipids. 2004, 39(2):167-172). Vero cells (monkey kidney fibroblasts) were seeded to the wells of 96-well plate at a density of 25,000 cells/well and incubated for 24 h. Samples at different concentrations were added and plates were again incubated for 48 h. The number of viable cells was determined by Neutral Red assay. IC50 values were obtained from dose-response curves. Doxorubicin was used as a positive control.

[2] = target: T1, Falcipain-2 protease (FP-2) (Plasmodium falciparum, UniProt Q8I6U4); experiment: Falcipain-2 protease inhibition assay (fluorescence reaction rate); type: biochemical
T1 construct: The falcipain-2 fragment was amplified by the polymerase chain reaction (PCR); His6 (N-terminal MRGS-His6 supplied by the pQE-30 vector; own knowledge of the vector, consistent with the Ni2+-NTA purification) (N); made in house; host or cells: E. coli M15
T1 sequence (Q8I6U4 244-484): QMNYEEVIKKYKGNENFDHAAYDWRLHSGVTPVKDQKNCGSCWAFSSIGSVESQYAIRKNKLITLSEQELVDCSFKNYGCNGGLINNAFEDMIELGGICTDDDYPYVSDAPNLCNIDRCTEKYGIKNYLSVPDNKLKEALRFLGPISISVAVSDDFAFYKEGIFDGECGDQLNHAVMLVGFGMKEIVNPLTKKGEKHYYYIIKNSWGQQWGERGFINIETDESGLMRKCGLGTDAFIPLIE
Experimental: (1) Expression and Purification of Falcipain-2 and Refolding of FP-2 Inclusion Bodies Protein
(2) The Determination of the Invention Compounds' Inhibitory Activity Against FP-2
FP-2 protein and test compounds dissolved in DMSO (prepared from EXAMPLES 1-4) were added to 197 μL, buffer, containing 100 mM NaOAc, 10 mM DTT, pH 5.5 (final concentration 10 μg/mL). The test compound were Stenopalustroside A, Stenopalustroside D, Tiliroside, kaempferol 3-O-β-(6″-caffeoylglucoside) and kaempferol 3-(2,4-di-E-p-coumaroyl-rhamnoside), respectively, which final concentration were 10 μM and 0 μM (as negative control). These compounds were incubated for […] and employed MD SpectraMax M5 Microplate Reader to continuous detect the RFU for 15 min, at excitation 355 nm and emission 460 nm Calculate the reaction rate Km, and obtain percentage inhibitory rate of the test compound at 10 μM by the following equation,
The equation is: (Kmof control group−Kmof experimental group)/Kmof control group×100%
Select […] compounds with over 50% inhibitory rate to detect IC50, and utilize the compound solutions prepared from EXAMPLE 1 to EXAMPLE 4, Stenopalustroside A, tiliroside kaempferol 3-O-β-(6″-caffeoylglucoside), and the experimental methods and system followed as EXAMPLE 6. According to FP-2 activity reaction rate Km with compounds at different concentrations, we can calculate the inhibitory rate of compounds against FP-2 at different concentration. The IC50 value was fitted with utilizing the Sigmoidal Equation by Origin software.

`O=C(/C=C/c1ccc(O)cc1)OC[C@H]1O[C@@H](Oc2c(-c3ccc(O)cc3)oc3cc(O)cc(O)c3c2=O)[C@H](O)[C@@H](O)[C@@H]1O` [Tiliroside] was tested. Which IC50 [1] did it give?
The IC50 was 106 µM.

What about the IC50 [2] of the same molecule?
Its IC50 is 13.1 µM.

What about the inhibition at 10 µM ([2]; 10 μM compound, pH 5.5) of the same molecule?
The inhibition at 10 µM was 64.4%.

Source: patent US8846627B2, “Method for treatment of malaria” (The Second Military Medical University, priority 2009, dated 2014)
